Measured values reported in US7605265B2, “Heterodimers and methods of using them” (priority 2007, dated 2009).

Experiments:
[1] = biological target: T1, butyrylcholinesterase (BChE) (Rattus norvegicus, UniProt Q9JKC1); assay: biochemical
T1 construct: from tissue; host or cells: rat serum

transient focal ischemia = assay: MCAO (middle carotid artery occlusion model), transient focal ischemia; format: in vivo, mice
Protocol: The MCAO (middle carotid artery occlusion model) was performed to investigate the protective effects of compounds A, B and C on the brain when the brain was exposed to transient focal ischemia (lack of oxygen), emulating brain conditions during a stroke. […] The ability of the novel compounds to protect against the appearance of these neurological deficits was examined using a four-point scale neurological scoring system (Mann Whitney U test). For each of the following observable signs, the distribution of test subjects was noted (with and without treatment with the invention after ischemia): (0) no observable neurological deficits (normal); (1) failure to extend the left forepaw fully (mild); (2) circling to the contralateral side (moderate); and (3) loss of walking and righting reflex (severe). • (ii) The brains of the test subjects slices were sectioned into five pieces and the infarct area and volume of each slice was measured. The % of infarct area in test subjects treated with the invention after ischemia was compared to that of the control group for each brain slice. • (iii) Hemispheric brain swelling and infarct volume (the area of dead tissue caused by inadequate blood supply) was measured for test subjects treated with the invention after ischemia, and compared to that of the control group.
The compounds were administered 5 minutes after ischemia, 5 minutes after reperfusion, or 6 hours after ischemia. FIGS. 5a to 5f show results for the heterodimers compound B, C or A respectively, when administered 5 minutes after ischemia or reperfusion. FIGS. 5g and 5h show the results when the novel heterodimers were administered 6 hours after ischemia.
Compound B was administered at 5 minutes after ischemia. Distribution of neurological scores based on a four-point scale neurological scoring system (Mann Whitney U test): (0) no observable neurological deficits (normal); (1) failure to extend the left forepaw fully (mild); (2) circling to the contralateral side (moderate); and (3) loss of walking and righting reflex (severe).
The brain was sectioned into five pieces, each 2-mm thick. The infarct area of each posterior surface was analyzed by an image analysis program. The percentage of infarct area and volume were calculated and presented as the percentage of the infarct area of the contralateral hemisphere to eliminate the contribution of edema to the ischemic lesion.
The infarct area of each posterior surface was analyzed by an image analysis program. Hemispheric brain swelling was calculated as follows (ipsilateral volume−contralateral volume)/contralateral volume×100%.

[2] = biological target: T2, acetylcholinesterase (AChE) (Rattus norvegicus, UniProt P37136); assay: In vitro inhibition of AChE (cholinesterase assay, Ellman method); format: biochemical
T2 construct: from tissue; host or cells: rat brain cortex
T2 sequence (P37136 32-614): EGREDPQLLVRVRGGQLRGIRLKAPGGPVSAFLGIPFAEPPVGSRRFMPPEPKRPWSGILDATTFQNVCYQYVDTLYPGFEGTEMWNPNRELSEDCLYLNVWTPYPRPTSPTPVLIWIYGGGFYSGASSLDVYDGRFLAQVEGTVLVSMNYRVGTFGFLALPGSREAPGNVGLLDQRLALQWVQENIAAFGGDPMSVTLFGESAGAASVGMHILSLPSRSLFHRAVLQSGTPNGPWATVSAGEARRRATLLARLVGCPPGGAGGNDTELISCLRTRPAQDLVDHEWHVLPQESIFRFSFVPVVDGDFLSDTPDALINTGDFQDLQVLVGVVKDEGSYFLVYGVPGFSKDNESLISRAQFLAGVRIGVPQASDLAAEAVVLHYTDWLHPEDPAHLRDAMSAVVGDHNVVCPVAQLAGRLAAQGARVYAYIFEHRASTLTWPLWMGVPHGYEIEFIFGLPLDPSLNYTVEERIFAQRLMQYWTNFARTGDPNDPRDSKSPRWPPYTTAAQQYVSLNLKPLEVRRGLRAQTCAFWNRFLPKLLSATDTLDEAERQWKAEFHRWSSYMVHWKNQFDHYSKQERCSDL
Protocol: The in vitro inhibition of the enzymes acetylcholinesterase (AChE) and butyrylcholinesterase (BChE) were assessed. BChE, like AChE, breaks down acetylcholine (ACh) but is found in plasma and other organs such as the liver, skin and gastrointestinal tract.
The enzymes, AChE and BChE, used in the inhibition studies were prepared from the cortex and serum of decapitated rats, respectively.

[3] = 0.005 μg/kg, 5 minutes after reperfusion
[4] = 0.005 μg/kg, 6 hours after ischemia
[5] = 0.05 μg/kg, 5 minutes after reperfusion
[6] = 0.05 μg/kg, 6 hours after ischemia

T1 sequence (Q9JKC1 24-597): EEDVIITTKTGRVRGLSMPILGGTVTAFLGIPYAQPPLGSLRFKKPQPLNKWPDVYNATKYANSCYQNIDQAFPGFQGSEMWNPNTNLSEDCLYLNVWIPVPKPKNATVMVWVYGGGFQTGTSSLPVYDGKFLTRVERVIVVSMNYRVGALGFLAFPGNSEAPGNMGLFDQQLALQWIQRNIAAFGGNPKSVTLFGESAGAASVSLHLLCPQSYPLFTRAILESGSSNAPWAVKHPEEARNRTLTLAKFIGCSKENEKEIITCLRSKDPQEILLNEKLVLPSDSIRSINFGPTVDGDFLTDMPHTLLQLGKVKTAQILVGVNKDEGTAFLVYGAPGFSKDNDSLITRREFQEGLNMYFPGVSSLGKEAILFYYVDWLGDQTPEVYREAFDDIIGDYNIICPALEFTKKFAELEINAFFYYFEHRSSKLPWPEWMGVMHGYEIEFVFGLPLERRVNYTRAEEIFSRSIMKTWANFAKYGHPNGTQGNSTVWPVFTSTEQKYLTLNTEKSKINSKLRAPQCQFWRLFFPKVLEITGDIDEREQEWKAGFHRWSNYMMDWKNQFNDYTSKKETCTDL

O=c1ccc2c([nH]1)CCCC2NCCCCCCCCNc1c2c(nc3cc(Cl)ccc13)CCCC2 (stereo not drawn) [Compound C]
IC50 [1]: 638 ± 122 nM
% Infarct area in brain slice # 1 (transient focal ischemia; [3]): 18.8 ± 3.3%
% Infarct area in brain slice # 2 (transient focal ischemia; [3]): 47.8 ± 3.0%
% Infarct area in brain slice # 3 (transient focal ischemia; [3]): 45.4 ± 1.8%
% Infarct area in brain slice # 4 (transient focal ischemia; [3]): 18.5 ± 3.8 %
% Infarct area in brain slice # 5 (transient focal ischemia; [3]): 0.6 ± 0.5%
Hemispheric swelling (%) (transient focal ischemia; [3]): 7.1 ± 1.0 %
Infarct volume (%) (transient focal ischemia; [3]): 30.1 ± 1.5 %
Observed Neurological Deficits Mean ± SEM (transient focal ischemia; [3]): 1.0 ± 0.0
Observed Neurological Deficits, score 0 (number of animals) (transient focal ischemia; [3]): 0
Observed Neurological Deficits, score 1 (number of animals) (transient focal ischemia; [3]): 9
Observed Neurological Deficits, score 2 (number of animals) (transient focal ischemia; [3]): 0
Observed Neurological Deficits, score 3 (number of animals) (transient focal ischemia; [3]): 0
n (dead/total): dead/total (transient focal ischemia; [3]): 9 (1/10)
% Infarct area in brain slice # 1 (transient focal ischemia; [4]): 15.9 ± 4.0%
% Infarct area in brain slice # 2 (transient focal ischemia; [4]): 40.2 ± 7.9%
% Infarct area in brain slice # 3 (transient focal ischemia; [4]): 35.5 ± 5.3 %
% Infarct area in brain slice # 4 (transient focal ischemia; [4]): 12.5 ± 4.9 %
% Infarct area in brain slice # 5 (transient focal ischemia; [4]): −0.8 ± 0.8%
Hemispheric swelling (%) (transient focal ischemia; [4]): 6.2 ± 1.2%
Infarct volume (%) (transient focal ischemia; [4]): 23.9 ± 4.3 %
Observed Neurological Deficits Mean ± SEM (transient focal ischemia; [4]): 1.3 ± 0.2
Observed Neurological Deficits, score 0 (number of animals) (transient focal ischemia; [4]): 0
Observed Neurological Deficits, score 1 (number of animals) (transient focal ischemia; [4]): 6
Observed Neurological Deficits, score 2 (number of animals) (transient focal ischemia; [4]): 2
Observed Neurological Deficits, score 3 (number of animals) (transient focal ischemia; [4]): 0
n (dead/total): dead/total (transient focal ischemia; [4]): 8 (1/9)
% Infarct area in brain slice # 1 (transient focal ischemia; [5]): 12.8 ± 3.3%
% Infarct area in brain slice # 2 (transient focal ischemia; [5]): 54.0 ± 4.1%
% Infarct area in brain slice # 3 (transient focal ischemia; [5]): 51.4 ± 3.1%
% Infarct area in brain slice # 4 (transient focal ischemia; [5]): 26.2 ± 6.7%
% Infarct area in brain slice # 5 (transient focal ischemia; [5]): −1.0 ± 0.8%
Hemispheric swelling (%) (transient focal ischemia; [5]): 7.4 ± 1.0 %
Infarct volume (%) (transient focal ischemia; [5]): 34.5 ± 3.7%
Observed Neurological Deficits Mean ± SEM (transient focal ischemia; [5]): 1.3 ± 0.2
Observed Neurological Deficits, score 0 (number of animals) (transient focal ischemia; [5]): 0
Observed Neurological Deficits, score 1 (number of animals) (transient focal ischemia; [5]): 4
Observed Neurological Deficits, score 2 (number of animals) (transient focal ischemia; [5]): 2
Observed Neurological Deficits, score 3 (number of animals) (transient focal ischemia; [5]): 0
n (dead/total): dead/total (transient focal ischemia; [5]): 6 (1/7)
% Infarct area in brain slice # 1 (transient focal ischemia; [6]): 11.7 ± 3.3%
% Infarct area in brain slice # 2 (transient focal ischemia; [6]): 38.0 ± 6.8 %
% Infarct area in brain slice # 3 (transient focal ischemia; [6]): 32.5 ± 6.6 %
% Infarct area in brain slice # 4 (transient focal ischemia; [6]): 16.8 ± 6.0%
% Infarct area in brain slice # 5 (transient focal ischemia; [6]): 0.5 ± 0.4%
Hemispheric swelling (%) (transient focal ischemia; [6]): 5.0 ± 1.2%
Infarct volume (%) (transient focal ischemia; [6]): 23.5 ± 4.4 %
Observed Neurological Deficits Mean ± SEM (transient focal ischemia; [6]): 1.3 ± 0.2
Observed Neurological Deficits, score 0 (number of animals) (transient focal ischemia; [6]): 0
Observed Neurological Deficits, score 1 (number of animals) (transient focal ischemia; [6]): 6
Observed Neurological Deficits, score 2 (number of animals) (transient focal ischemia; [6]): 2
Observed Neurological Deficits, score 3 (number of animals) (transient focal ischemia; [6]): 0
n (dead/total): dead/total (transient focal ischemia; [6]): 8 (1/9)
infarct area in brain slices (in words) (transient focal ischemia; 5 minutes after reperfusion, FIG. 5c): reduction in infarct area of brain slices #4
infarct size and hemispheric swelling (in words) (transient focal ischemia; 5 minutes after reperfusion, FIG. 5d): reduced infarct size and hemispheric swelling
infarct area (in words) (transient focal ischemia; 6 hours after ischemia, FIG. 5g): improvement in the infarct area
infarct volume (in words) (transient focal ischemia; 6 hours after ischemia, FIG. 5h): decreases infarct volume
neurological deficits induced by ischemia (in words) (transient focal ischemia; administered 5 minutes after reperfusion): reduced neurological deficits induced by ischemia
neurological deficits (in words) (transient focal ischemia; administration 6 hours after ischemia): reduced neurological deficits
times more potent than bis(7)-tacrine ([2]; AChE inhibition): ~1039
times more potent than tacrine ([2]; AChE inhibition): ~11000
Selectivity AchE* ([2]; IC50 (BChE)/IC50 (AChE)): 50317.32
IC50 ([2]; enzyme prepared from rat cortex): 0.0127 ± 0.002 nM
